In test [1] the test system is mice. Put plainly: Anti-Marble Burying Behavior Test in Mice. The format is in vivo. Particulars: Mus musculus, reduction in number of marbles buried, ip. The source says: Marble burying was developed and validated as a pre-clinical assay of potential anxiolytic activity (Andrews and Broekkamp (1993). Procedures to Identify Anxiolytic or Anxiogenic agents. In Behavioural Neuroscience, ed. A Sahgal, pp. 37-54. IRL Press, Oxford). The marble burying test places a naive mouse into a novel environment containing 25 marbles (arranged on top of a sawdust surface). A reduction in the number of marbles buried by the mouse was hypothesized to be an anxiolytic-like effect.

In test [2] the target is T1, Serotonin 1A (5-HT1A) receptor (Rattus norvegicus, UniProt P19327).
T1 construct: The cortex tissue were homogenized in 30 volumes of ice-cold 50 mM Tris-HCl buffer; from tissue; host or cells: Sprague-Dawley rat brain cortex membranes
T1 sequence (P19327 1-422): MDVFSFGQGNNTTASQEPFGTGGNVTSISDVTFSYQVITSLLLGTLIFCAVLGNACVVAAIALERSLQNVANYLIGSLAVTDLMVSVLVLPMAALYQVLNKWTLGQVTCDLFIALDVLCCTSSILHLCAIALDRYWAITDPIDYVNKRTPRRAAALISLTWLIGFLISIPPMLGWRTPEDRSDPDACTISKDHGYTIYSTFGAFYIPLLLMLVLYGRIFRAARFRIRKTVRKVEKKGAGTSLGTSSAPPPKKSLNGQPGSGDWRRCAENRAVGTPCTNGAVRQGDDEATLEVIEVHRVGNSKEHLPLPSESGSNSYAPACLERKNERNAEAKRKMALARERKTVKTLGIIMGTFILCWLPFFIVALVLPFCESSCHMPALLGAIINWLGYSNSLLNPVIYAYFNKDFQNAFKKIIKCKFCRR
The test is described as follows: Serotonin 1A (5-HT1A) receptor inhibition assay, [3H]8-OH-DPAT binding to rat cortex membranes. Particulars: 10 nM test compound; 0.92 nM [3H]8-OH-DPAT; rat cortex homogenate; 60 min at 25° C. Also on record: species or system Sprague-Dawley (SD) rats. As to the method: The method to test the ability of compounds to inhibit serotonin 1A(5-HT1A) receptors was using Hall. et al., J Neuro Chem., 1985, 44, p 1685-1696 with modification.
The Sprague-Dawley (SD) rats were killed by decapitation and their brains rapidly removed at 4° C. The cortex tissue were homogenized in 30 volumes of ice-cold 50 mM Tris-HCl buffer (pH7.4) using an ultra-turrax T8 and centrifuged at 48,000 g for 20 min. The supernatant was discarded and the pellet washed twice by resuspension in 20 volumes Tris-HCl and centrifugation, homogenized in 20 volumes Tris-HCl, and incubated at 37° C. for 10 min. Membranes were than collected by centrifugation and washed twice before final resuspension in 10 volumes of 50 mM Tris-HCl, pH7.4.
For binding assays, the incubation medium consisted of 162.5 ug of tissue homogenate, 0.92 nM of [3H]8-OH-DPAT and vehicle or 10 uM of 5-HT or 10 nM of test compounds per well. 5-HT and test compounds were dissolved in distilled water and incubation medium was 50 mM Tris(pH7.4 at room temperature). The assay plates (96 well) were incubated for 60 min at 25° C. The reaction was terminated by rapid filtration using a Tomtec harvester, through GF/C glassfibre filter with 5 times washes of Tris buffer. The radioactivity retained on the filters was counted by scintillation spectroscopy (MicroBeta TriLux, Wallac). The tests were triplicates. Percent inhibition was calculated as below equation.
Total binding is the value of vehicle treated group and specific binding is the values that deduct non-specific binding (i.e. the value of non-specific ligand, 5-HT).

In test [3] the test system is mice. The test is described as follows: Tail Suspension Test in Mice (TST). The format is in vivo. Particulars: Mus musculus, reduction in immobility vs control group, 1 mg/kg, po. The text has this: Tail Suspension Test in mice is the well-known animal model to determine antidepressant efficacy of compounds by checking escaping behavior and immobility time of mice. Mice treated with antidepressant drug show escaping behavior continuously comparing with control group.
The mice were mainly treated orally with the test compound dissolved in 30% PEG400 or with only 30% PEG400 as control. Tail of mouse is suspended to the rod of TST equipment and end of tail is fixed with sticky tape. Suspended mouse is incubated during 2 min for training and adaptation and after following 2 min, observe escaping behavior and check immobility time for 4 min. The potent ability of the compounds was determined as percent value of reduction in immobility comparing to control group as 100% baseline.

Molecules are shown by their SMILES. Structures can show the parent of a compound that is named as a salt.

On to `O=C1CC2(CCCC2)CC(=O)N1CCCCN1CCN(c2ncccn2)CC1` [Buspirone, reference compound], for which the inhibition in vivo at 20 mg/kg with mice [1] (20 mg/kg) was found to be 56%.

Consider `COc1ccccc1N1CCN(CCCCOc2ccc(Cn3ccnc3)cc2)CC1` [Example 1, 1-[4-(4-imidazol-1-ylmethyl-phenoxy)-butyl]-4-(2-methoxy-phenyl)-piperazine], for which the inhibition at 0.01 µM in test [2] worked out at 83.1%. The inhibition in vivo at 3 mg/kg in the test with mice [1] came out at 28.7%.

In the case of `COc1ccccc1N1CCN(CCCCOc2ccc(Cn3cncn3)cc2)CC1` [Example 2, 1-(2-methoxy-phenyl)-4-[4-(4-[1,2,4]triazol-1-ylmethyl-phenoxy)-butyl]-piperazine], at 0.01 µM the inhibition in test [2] was 80.3%. In addition, in the test on mice [1], the inhibition in vivo at 3 mg/kg was 93.3%.

As to `COc1ccccc1N1CCN(CCCCOc2cccc(Cn3ccnc3)c2)CC1` [Example 5, 1-[4-(3-imidazol-1-ylmethyl-phenoxy)-butyl]-4-(2-methoxy-phenyl)-piperazine-hydrochloride], the inhibition at 0.01 µM in test [2] turned out to be 50.7%. At 1 mg/kg the inhibition in vivo in the test on mice [3] was 21.2%. In addition, at 7.5 mg/kg the inhibition in vivo in the test on mice [1] was 60.3%.

Turning to `COc1ccccc1N1CCN(CCCCOc2cccc(Cn3cnnn3)c2)CC1` [Example 7, 1-(2-methoxy-phenyl)-4-[4-(3-tetrazol-1-ylmethyl-phenoxy)-butyl]-piperazine hydrochloride], the inhibition at 0.01 µM in test [2] was 78.4%. Besides, in the test with mice [3], the inhibition in vivo at 1 mg/kg was 21.1%. In the test on mice [1], this compound came in with an inhibition in vivo at 7.5 mg/kg of 61.1%.

In test [2], `COc1ccccc1N1CCN(CCCCOc2cccc(Cn3ncnn3)c2)CC1` [Example 8, 1-(2-methoxy-phenyl)-4-[4-(3-tetrazol-2-ylmethyl-phenoxy)-butyl]-piperazine hydrochloride] displayed an inhibition at 0.01 µM of 81.6%. In the test with mice [3], this compound registered an inhibition in vivo at 1 mg/kg of 19.6%.

Consider `COc1ccccc1N1CCN(CCCCOc2ccc(Cn3nccn3)cc2)CC1` [Example 11, 1-(2-methoxy-phenyl)-4-[4-(4-[1,2,3]triazol-2-ylmethyl-phenoxy)-butyl]-piperazine], for which the inhibition at 0.01 µM in test [2] came to 61.8%. Besides, in the test with mice [3], the inhibition in vivo at 1 mg/kg came to 25%. This compound also displayed an inhibition in vivo at 7.5 mg/kg in the test with mice [1] of 69%.

In test [2], `COc1ccccc1N1CCN(CCCCOc2ccc(Cn3ccnn3)cc2)CC1` [Example 12, 1-(2-methoxy-phenyl)-4-[4-(4-[1,2,3]triazol-1-ylmethyl-phenoxy)-butyl]-piperazine] came in with an inhibition at 0.01 µM of 60.9%. For the same compound, the inhibition in vivo at 1 mg/kg with mice [3] was determined as 12.7%. Further, at 3 mg/kg the inhibition in vivo in the test on mice [1] was 97.3%.

`COc1ccccc1N1CCN(CCCCOc2ccc(Cn3nnnc3C)cc2)CC1` [Example 18, 1-(2-methoxy-phenyl)-4-{4-[4-(5-methyl-tetrazol-1-ylmethyl)-phenoxy]-butyl}-piperazine] had an inhibition at 0.01 µM in test [2] of 69.5%. Moreover, in the test with mice [3], the inhibition in vivo at 1 mg/kg is 14.7%.

In the case of `COc1ccccc1N1CCN(CCCCOc2ccc(CN(C)C)cc2)CC1` [Example 19, (4-{4-[4-(2-methoxy-phenyl)-piperazin-1-yl]-butoxy}-benzyl)-dimethyl-amine dihydrochloride], at 0.01 µM the inhibition in test [2] was 59.6%. Also, at 1 mg/kg the inhibition in vivo with mice [3] was 50.6%. Besides, in the test with mice [1], the inhibition in vivo at 7.5 mg/kg turned out to be 50.8%.

Regarding `COc1ccccc1N1CCN(CCCCOc2ccc(CN3CCCCC3)cc2)CC1` [Example 20, 1-(2-methoxy-phenyl)-4-[4-(4-piperidin-1-ylmethyl-phenoxy)-butyl]-piperazine], testing at 0.01 µM in test [2] gave an inhibition of 68.5%. This compound showed an inhibition in vivo at 7.5 mg/kg in the test on mice [1] of 27%.

In turn, `COc1ccccc1N1CCN(CCCCOc2ccc(CNc3ccccc3)cc2)CC1` [Example 21, (4-{4-[4-(2-methoxy-phenyl)-piperazin-1-yl]-butoxy}-benzyl)-phenyl-amine] had an inhibition at 0.01 µM in test [2] of 38.2%. The same compound came in with an inhibition in vivo at 3 mg/kg in the test on mice [1] of 29.9%.

Consider `COc1ccccc1N1CCN(CCCCOc2cccc(Cn3nccn3)c2)CC1` [Example 24, 1-(2-methoxy-phenyl)-4-[4-(3-[1,2,3]triazol-2-ylmethyl-phenoxy)-butyl]-piperazine], for which testing at 0.01 µM in test [2] gave an inhibition of 51.6%. Also, testing at 3 mg/kg with mice [1] gave an inhibition in vivo of 62.6%.

Compound `COc1ccccc1N1CCN(CCCCOc2cccc(CN(C)C)c2)CC1` [Example 28, (3-{4-[4-(2-methoxy-phenyl)-piperazin-1-yl]-butoxy}-benzyl)-dimethyl-amine] had an inhibition at 0.01 µM in test [2] of 13.5%. This compound also registered an inhibition in vivo at 3 mg/kg in the test with mice [1] of 24.6%.

The compound `COc1ccccc1N1CCN(CCCCOc2ccc(CN3CCOCC3)cc2)CC1` [Example 32, 4-(4-{4-[4-(2-methoxy-phenyl)-piperazin-1-yl]-butoxy}-benzyl)-morpholine] showed an inhibition in vivo at 7.5 mg/kg in the test with mice [1] of 27.8%.

In turn, `CN(C)Cc1ccc(OCCCCN2CCN(c3ccccc3Cl)CC2)cc1` [Example 33, (4-{4-[4-(2-Chloro-phenyl)-piperazin-1-yl]-butoxy}-benzyl)-dimethyl-amine] gave an inhibition at 0.01 µM in test [2] of 53.7%. 1 mg/kg produced 26.8% inhibition in vivo in the test on mice [3].

In test [2], `Clc1cccc(N2CCN(CCCCOc3ccc(Cn4ncnn4)cc3)CC2)c1Cl` [Example 36, 1-(2,3-dichloro-phenyl)-4-[4-(4-tetrazol-2-ylmethyl-phenoxy)-butyl]-piperazine] gave an inhibition at 0.01 µM of 28.1%. Also, 3 mg/kg produced 25.3% inhibition in vivo in the test with mice [1].

Take `CN(C)Cc1ccc(OCCCCN2CCN(c3cccc(Cl)c3Cl)CC2)cc1` [Example 39, (4-{4-[4-(2,3-dichloro-phenyl)-piperazin-1-yl]-butoxy}-benzyl)-dimethyl-amine]: the inhibition at 0.01 µM in test [2] was determined as 52.9%. Moreover, the inhibition in vivo at 1 mg/kg in the test on mice [3] is 30.4%.

Take `Clc1cccc(N2CCN(CCCCOc3ccc(CN4CCOCC4)cc3)CC2)c1Cl` [Example 40, 4-(4-{4-[4-(2,3-Dichloro-phenyl)-piperazin-1-yl]-butoxy}-benzyl)-morpholine]: in test [2], testing at 0.01 µM gave an inhibition of 45.6%. Testing at 1 mg/kg in the test with mice [3] gave an inhibition in vivo of 10.6%.

As to `CN1CCN(Cc2ccc(OCCCCN3CCN(c4cccc(Cl)c4Cl)CC3)cc2)CC1` [Example 41], the inhibition at 0.01 µM in test [2] was found to be 82.1%. 1 mg/kg produced 14.1% inhibition in vivo in the test on mice [3].

In the case of `COc1ccccc1N1CCN(CCCCOc2ccc(CCn3ccnc3)cc2)CC1` [Example 47, 1-{4-[4-(2-imidazol-1-yl-ethyl)-phenoxy]-butyl}-4-(2-methoxy-phenyl)-piperazine], testing at 0.01 µM in test [2] gave an inhibition of 70%. In the test on mice [1], this compound gave an inhibition in vivo at 3 mg/kg of 39.3%.

Turning to `COc1ccccc1N1CCN(CCCCOc2ccc(CCn3nccn3)cc2)CC1` [Example 49, 1-(2-methoxy-phenyl)-4-{4-[4-(2-[1,2,3]triazol-2-yl-ethyl)-phenoxy]-butyl}-piperazine], the inhibition at 0.01 µM in test [2] came to 45%. In the test with mice [3], this compound gave an inhibition in vivo at 1 mg/kg of 34.3%.

Compound `COc1ccccc1N1CCN(CCCCOc2ccc(CCn3cnnn3)cc2)CC1` [Example 52, 1-(2-methoxy-phenyl)-4-{4-[4-(2-tetrazol-1-yl-ethyl)-phenoxy]-butyl}-piperazine] displayed an inhibition at 0.01 µM in test [2] of 62%. In the test with mice [3], this compound showed an inhibition in vivo at 1 mg/kg of 26.4%.

The compound `COc1ccccc1N1CCN(CCCCOc2ccc(CCn3nnc(C)n3)cc2)CC1` [Example 54, 1-(2-Methoxy-phenyl)-4-(4-{4-[2-(5-methyl-tetrazol-2-yl)-ethyl]-phenoxy}-butyl)-piperazine] had an inhibition at 0.01 µM in test [2] of 71%. The inhibition in vivo at 1 mg/kg in the test with mice [3] was found to be 31.8%.

The inhibition in vivo is how much of the control response was suppressed. A low value points to a weak effect. The inhibition is the relative decrease from the control value, in per cent.
